System: NOMO1
Test: cell viability relative to DMSO control; higher = less cytotoxic
Settings: 48 h
In short: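 Before seeding, each leukemia line was adapted for at least four passages in each medium. NOMO1 or SEM cells (500 cells/well) and P12-Ichikawa cells (1000 cells/well) went into 1536-well plates at 5 μl, then received library compounds in DMSO by pin dosing across 11 threefold concentrations, 47 μM to 0.79 nM. Readout was CellTiter-Glo One luminescence after 48 h at 37°C, and viability is given as a per-plate percentage of DMSO wells, with cell-free wells as background.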

[1] = HPLM + 10% dialyzed FBS, 0.000781 µM
[2] = HPLM + 10% dialyzed FBS, 0.00234 µM
[3] = HPLM + 10% dialyzed FBS, 0.00702 µM
[4] = HPLM + 10% dialyzed FBS, 0.0211 µM
[5] = HPLM + 10% dialyzed FBS, 0.0632 µM
[6] = HPLM + 10% dialyzed FBS, 0.19 µM
[7] = HPLM + 10% dialyzed FBS, 0.569 µM
[8] = HPLM + 10% dialyzed FBS, 1.71 µM
[9] = HPLM + 10% dialyzed FBS, 5.12 µM
[10] = HPLM + 10% dialyzed FBS, 15.4 µM
[11] = HPLM + 10% dialyzed FBS, 46.1 µM
[12] = RPMI 5 mM glucose + 10% FBS, 0.000781 µM
[13] = RPMI 5 mM glucose + 10% FBS, 0.00234 µM
[14] = RPMI 5 mM glucose + 10% FBS, 0.00702 µM
[15] = RPMI 5 mM glucose + 10% FBS, 0.0211 µM
[16] = RPMI 5 mM glucose + 10% FBS, 0.0632 µM
[17] = RPMI 5 mM glucose + 10% FBS, 0.19 µM
[18] = RPMI 5 mM glucose + 10% FBS, 0.569 µM
[19] = RPMI 5 mM glucose + 10% FBS, 1.71 µM
[20] = RPMI 5 mM glucose + 10% FBS, 5.12 µM
[21] = RPMI 5 mM glucose + 10% FBS, 15.4 µM
[22] = RPMI 5 mM glucose + 10% FBS, 46.1 µM
[23] = RPMI 5 mM glucose + 10% dialyzed FBS, 0.000781 µM
[24] = RPMI 5 mM glucose + 10% dialyzed FBS, 0.00234 µM
[25] = RPMI 5 mM glucose + 10% dialyzed FBS, 0.00702 µM
[26] = RPMI 5 mM glucose + 10% dialyzed FBS, 0.0211 µM
[27] = RPMI 5 mM glucose + 10% dialyzed FBS, 0.0632 µM
[28] = RPMI 5 mM glucose + 10% dialyzed FBS, 0.19 µM
[29] = RPMI 5 mM glucose + 10% dialyzed FBS, 0.569 µM
[30] = RPMI 5 mM glucose + 10% dialyzed FBS, 1.71 µM
[31] = RPMI 5 mM glucose + 10% dialyzed FBS, 5.12 µM
[32] = RPMI 5 mM glucose + 10% dialyzed FBS, 15.4 µM
[33] = RPMI 5 mM glucose + 10% dialyzed FBS, 46.1 µM

| SMILES | cell viability [1] | cell viability [2] | cell viability [3] | cell viability [4] | cell viability [5] | cell viability [6] | cell viability [7] | cell viability [8] | cell viability [9] | cell viability [10] | cell viability [11] | cell viability [12] | cell viability [13] | cell viability [14] | cell viability [15] | cell viability [16] | cell viability [17] | cell viability [18] | cell viability [19] | cell viability [20] | cell viability [21] | cell viability [22] | cell viability [23] | cell viability [24] | cell viability [25] | cell viability [26] | cell viability [27] | cell viability [28] | cell viability [29] | cell viability [30] | cell viability [31] | cell viability [32] | cell viability [33] |
| --- | --- | --- | --- | --- | --- | --- | --- | --- | --- | --- | --- | --- | --- | --- | --- | --- | --- | --- | --- | --- | --- | --- | --- | --- | --- | --- | --- | --- | --- | --- | --- | --- | --- |
| COC1=CC=C(C=C1)/C2=C(O)/C(=O)C3=C(O)C=C(O)C(=C3O2)CC=C(C)C | 105% | 120% | 122% | 114% | 132% | 117% | 115% | 127% | 124% | 104% | 130% |  |  |  |  |  |  |  |  |  |  |  |  |  |  |  |  |  |  |  |  |  |  |
| CNc1nc(-c2ccc3c(N)n[nH]c3c2)cc(N2C[C@@H](C(=O)NC3CCCCC3)CC[C@H]2C)n1 | 76.9% | 82.3% | 79.8% | 95% | 94.8% | 89.2% | 68.2% | 64.5% | 55.9% | 64.2% | 17.7% | 73.9% | 78% | 76.2% | 80.4% | 89.3% | 80.3% | 77.1% | 84.2% | 69.9% | 73.8% | 19% | 75.9% | 91.8% | 79.2% | 92.5% | 90.2% | 85.5% | 70.3% | 70.8% | 68.2% | 68.2% | 29.7% |
| COc1ccccc1[C@H](c1cccc2ccccc12)[C@@](C)(C#N)C(=O)N1CCC(c2cccc(C(F)(F)F)c2)CC1 | 96.4% | 109% | 101% | 104% | 115% | 102% | 102% | 93.7% | 88.6% | 64.3% | 39.9% | 102% | 96% | 101% | 106% | 99.6% | 103% | 99.7% | 107% | 97.6% | 85.2% | 60.3% | 100% | 98.9% | 98.6% | 99.3% | 104% | 99.9% | 86.4% | 86.5% | 83.1% | 67.3% | 53.1% |
| Cc1cn2cc(C(=O)N(C)CCO)cc(N[C@@H]3CCOc4cccc(C)c43)c2n1 | 93.8% | 105% | 112% | 118% | 122% | 115% | 110% | 131% | 119% | 108% | 130% | 96.2% | 108% | 107% | 104% | 105% | 106% | 113% | 111% | 122% | 117% | 129% | 105% | 104% | 114% | 130% | 114% | 110% | 122% | 117% | 115% | 128% | 129% |
| Cc1ccc2nc(NCCN)c3ncc(C)n3c2c1 | 116% | 99.9% | 121% | 104% | 108% | 107% | 105% | 101% | 113% | 88.7% | 8.31% | 88.1% | 92.2% | 91.9% | 94.1% | 98.1% | 98.4% | 100% | 87.8% | 90.2% | 84.9% | 11.3% | 87.9% | 95.8% | 104% | 104% | 99% | 96% | 95.6% | 96.7% | 100% | 81.6% | 7.57% |
| CCCCCCNC(=O)N1\C=C(F)/C(=O)NC1=O | 117% | 136% | 124% | 127% | 128% | 137% | 122% | 124% | 118% | 94.6% | 79.9% | 111% | 119% | 136% | 109% | 109% | 114% | 129% | 127% | 122% | 115% | 83.9% | 124% | 136% | 124% | 122% | 110% | 128% | 130% | 120% | 110% | 82.3% | 69.6% |
| CCN(CC)CCNC(=O)c1c(C)[nH]c(/C=C2\C(=O)Nc3ccc(F)cc32)c1C | 79.5% | 103% | 109% | 124% | 87.1% | 23.4% | 30.7% | 23% | 29.1% | 6.81% | 4.98% | 106% | 103% | 109% | 113% | 115% | 45.5% | 16.1% | 21.9% | 24.7% | 11.5% | 3.98% | 97.7% | 110% | 100% | 117% | 117% | 43.1% | 22.3% | 25.9% | 31.8% | 11.3% | 3.82% |
| OC[C@H]1O[C@H](C[C@@H]1O)N2/C=C(C(=O)NC2=O)/C(F)(F)F | 128% | 120% | 106% | 116% | 120% | 114% | 82.8% | 58.8% | 69.7% | 45% | 26.5% | 99.8% | 117% | 116% | 116% | 114% | 107% | 118% | 115% | 107% | 86.9% | 42.9% | 115% | 110% | 121% | 113% | 103% | 113% | 97.4% | 96% | 67.7% | 31.3% | 18.3% |
